Patent US5302621A, “Azasteroid compounds for the treatment of prostatic hypertrophy, their preparation and use” (Sankyo Company, Limited, priority 1990, dated 1994)

System: rat 5α-reductase
Experiment: Assay of Rat 5α-reductase Inhibition
Type: biochemical, rat (Sprague-Dawley)
Conditions: 10^-8 M test compound; rat prostate 5α-reductase, 1 μM [14C] testosterone, pH 6.5, 37° C., 15 to 30 minutes
Experimental: The prostatic lobes of a mature male rat (body weight 350-450 g, Sprague-Dawley strain) were cut into small pieces with scissors. About three parts by weight of a buffer solution [20 mM potassium phosphate buffer solution (ph 7.4) containing 0.33M sucrose, 1 mM dithiothreitol, 50 μM nicotinamide adenine dinucleotide phosphate-reduced form (NADPH) and 0.001% PMSF (phenylmethyl sulfonyl fluoride)] were added to one part by weight of the tissue pieces, and the mixture was homogenized first by means of a Polytron (trade mark, KINEMATICA GmbH) homogenizer, and then by means of a Teflon (trade mark) glass homogenizer. The prostatic tissue suspension thus homogenized was then centrifuged (140000×g, 60 minutes) to separate the precipitate.
About three parts by weight of the buffer solution described above were added to one part of the precipitate to suspend it, and the suspension was centrifuged again (140000×g, 60 minutes) to wash it and separate a precipitate, which was regarded as a rat 5α-reductase preparation. Sufficient of the buffer solution described above was added to this precipitate for the protein content of the solution to become between 20 and 40 mg/ml. The solution was frozen and stored at -80° C. The protein content was determined by a Bio-Rad protein assay in which bovine γ-globulin (Cohn Fraction II, Sigma) was used as the protein standard.
5 μl of a dimethyl sulfoxide or ethanol solution in which a test compound to be tested was dissolved were added to 0.5 ml of a 40 mM potassium phosphate buffer solution (pH 6.5) containing rat 5α-reductase (protein content, 1 mg), 1 μM [^14 C] testosterone, 1 mM dithiothreitol and 500 μM NADPH (final concentration 10^-8 M of the test compound), and incubated for 15 to 30 minutes at 37° C. As a control, only the solvent was added to one sample. 2 ml of ethyl acetate containing 10 μg each of testosterone, 5α-dihydrotestosterone and androstenedione were then added to stop the reaction. The mixture was centrifuged (1400×g, 5 minutes). The ethyl acetate layer was separated and transferred to another test tube, where it was evaporated to dryness whilst spraying it with nitrogen gas. The steroids were dissolved in 40 μl of ethyl acetate. The solution was spotted on a thin layer chromatographic plate (LK5DF silica plate, Whatman), and developed with a mixture of ethyl acetate with cyclohexane (1:1 by volume) twice at room temperature. The steroid fraction was identified by color development by ultraviolet radiation or by heating with a […]/10% sulfuric acid solution. The radioactivity on the thin layer chromatographic plate was measured by means of a bio-image analyzer (Fuji Film Co. Ltd.). The enzyme activity was given by the amount [conversion rate (%)] of [^14 C] 5α-dihydro-testosterone which was converted from the [^14 C] testosterone initially added. The rat 5α-reductase inhibiting activity of a test sample was calculated from the following equation: [formula]
With `CC(C)(C)NC(=O)C1CCC2C3CCC4NC(=O)C=CC4(C)C3CCC12C` (centres unmarked) [Compound A2, reference compound] the “Rat 5α-reductase inhibiting activity: Inhibiting activity (%)” value (from here on “Rat 5α-reductase inhibiting activity … (%)”) was 30.0%. With `C[C@]12CCC(=O)N[C@@H]1CC[C@@H]1[C@@H]2CC[C@]2(C)[C@@H](C(=O)NC(c3ccccc3)c3ccccc3)CC[C@@H]12` [Example No. 1, N-(Diphenylmethyl)-3-oxo-4-aza-5α-androstane-17β-carboxamide] the “Rat 5α-reductase inhibiting activity … (%)” value was 89.2%. With `C[C@]12CCC(=O)N[C@@H]1CC[C@@H]1[C@@H]2CC[C@]2(C)[C@@H](C(=O)NC(Cc3ccccc3)c3ccccc3)CC[C@@H]12` (stereo partly drawn) [Example No. 3, N-(1,2-Diphenylethyl)-3-oxo-4-aza-5α-androstane-17β-carboxamide] the “Rat 5α-reductase inhibiting activity … (%)” value was 89.1%. For `C[C@]12CCC(=O)N[C@@H]1CC[C@@H]1[C@@H]2CC[C@]2(C)[C@@H](C(=O)N(Cc3ccccc3)Cc3ccccc3)CC[C@@H]12` [Example No. 4, N,N-Dibenzyl-3-oxo-4-aza-5α-androstane-17β-carboxamide], the “Rat 5α-reductase inhibiting activity … (%)” value was 74.1%. With `C[C@]12C=CC(=O)N[C@@H]1CC[C@@H]1[C@@H]2CC[C@]2(C)[C@@H](C(=O)NC(Cc3ccccc3)c3ccccc3)CC[C@@H]12` (stereo partly drawn) [Example No. 8, N-(1,2-Diphenylethyl)-3-oxo-4-aza-5α-androst-1-ene-17β-carboxamide] the “Rat 5α-reductase inhibiting activity … (%)” value was 74.6%. With `C[C@]12CC[C@H]3[C@@H](CC=C4NC(=O)CC[C@@]43C)[C@@H]1CC[C@@H]2C(=O)NC(Cc1ccccc1)c1ccccc1` (stereo partly drawn) [Example No. 12, N-(1,2-Diphenylethyl)-3-oxo-4-azaandrost-5-ene-17β-carboxamide] the “Rat 5α-reductase inhibiting activity … (%)” value was 78.4%. With `CN1C(=O)CC[C@]2(C)[C@H]3CC[C@]4(C)[C@@H](C(=O)NC(c5ccccc5)c5ccccc5)CC[C@H]4[C@@H]3CC[C@@H]12` [Example No. 20, N-(Diphenylmethyl)-4-methyl-3-oxo-4-aza-5α-androstane-17β-carboxamide] the “Rat 5α-reductase inhibiting activity … (%)” value was 86.7%. With `CN1C(=O)CC[C@]2(C)[C@H]3CC[C@]4(C)[C@@H](C(=O)NC(C)(c5ccccc5)c5ccccc5)CC[C@H]4[C@@H]3CC[C@@H]12` [Example No. 26, N-(1,1-Diphenylethyl)-4-methyl-3-oxo-4-aza-5α-androstane-17β-carboxamide] the “Rat 5α-reductase inhibiting activity … (%)” value was 87.3%. In the case of `CC(C)(NC(=O)[C@H]1CC[C@H]2[C@@H]3CC[C@H]4NC(=O)CC[C@]4(C)[C@H]3CC[C@]12C)c1ccccc1` [Example No. 37, N-(1-Methyl-1-phenylethyl)-3-oxo-4-aza-5α-androstane-17β-carboxamide], the “Rat 5α-reductase inhibiting activity … (%)” value is reported as 82.2%. In the case of `CN1C(=O)CC[C@]2(C)[C@H]3CC[C@]4(C)[C@@H](C(=O)NC(C)(C)c5ccccc5)CC[C@H]4[C@@H]3CC[C@@H]12` [Example No. 40, N-(1-Methyl-1-phenylethyl)-4-methyl-3-oxo-4-aza-5α-androstane-17β-carboxamide], the “Rat 5α-reductase inhibiting activity … (%)” value is reported as 88.6%. In the case of `CN1C(=O)CC[C@@]2(C)C1=CC[C@H]1[C@@H]3CC[C@H](C(=O)NC(C)(C)c4ccccc4)[C@@]3(C)CC[C@@H]12` [Example No. 42, N-(1-Methyl-1-phenylethyl)-4-methyl-3-oxo-4-aza-androst-5-ene-17β-carboxamide], the “Rat 5α-reductase inhibiting activity … (%)” value is reported as 72.3%. In the case of `COc1ccc(C(C)(C)NC(=O)[C@H]2CC[C@H]3[C@@H]4CC[C@H]5NC(=O)C=C[C@]5(C)[C@H]4CC[C@]23C)cc1` [Example No. 44, N-[1-(4-Methoxyphenyl)-1-methylethyl]-3-oxo-4-aza-5α-androst-1-ene-17β-carboxamide], the “Rat 5α-reductase inhibiting activity … (%)” value is reported as 73.2%. With `Cc1ccc(C[C@H](NC(=O)[C@H]2CC[C@H]3[C@@H]4CC[C@H]5NC(=O)CC[C@]5(C)[C@H]4CC[C@]23C)c2ccccc2)cc1` [Example No. 62, N-[(S)-2-(4-Methylphenyl)-1-phenylethyl]-3-oxo-4-aza-5α-androstane-17β-carboxamide] the “Rat 5α-reductase inhibiting activity … (%)” value was 90.1%. In the case of `C[C@]12C=CC(=O)N[C@@H]1CC[C@@H]1[C@@H]2CC[C@]2(C)[C@@H](C(=O)NN(c3ccccc3)c3ccccc3)CC[C@@H]12` [Example No. 65, N,N-Diphenyl-3-oxo-4-aza-5α-androst-1-ene-17β-carbohydrazide], the “Rat 5α-reductase inhibiting activity … (%)” value is reported as 80.0%. For `C[C@]12C=CC(=O)N[C@@H]1CC[C@@H]1[C@@H]2CC[C@]2(C)[C@@H](C(=O)N[C@H](c3ccccc3)[C@@H](O)c3ccccc3)CC[C@@H]12` [Example No. 73, N-[(1R,2S)-2-Hydroxy-1,2-diphenylethyl]-3-oxo-4-aza-5α-androst-1-ene-17β-carboxamide], the “Rat 5α-reductase inhibiting activity … (%)” value was 80.5%.

System: testosterone 5α-reductase
Experiment: not given
Conditions: background, U.S. Pat. No. 4,179,453 and 4,760,071; cited from earlier work
In the case of `CCN(CC)C(=O)C1CCC2C3CCC4NC(=O)C=CC4(C)C3CCC12C` (centres unmarked) [Compound A1], the “5α-reductase inhibitory activity of prior-art compounds, in words” value is given as “quite a potent activity”. For `CC(C)(C)NC(=O)C1CCC2C3CCC4NC(=O)C=CC4(C)C3CCC12C` (centres unmarked) [Compound A2, reference compound], the “5α-reductase inhibitory activity of prior-art compounds, in words” value is given as “quite a potent activity”.
